Laboratory results from US10717746B2, “Chemical compounds” (ASTRAZENECA AB, priority 2015, dated 2020).

Key:
[1] = biological target: T1, CDK9/CycT1 (Homo sapiens (Human), UniProt P50750); assay: CDK9 kinase assay, ATP concentration at Km (mobility shift, Caliper LC3000); type: biochemical; conditions: 6 μM ATP, 3 nM CDK9/CycT1; read-out: CDK9 ATP conc. at Km (IC50)
Description: (§1) Activity of CDK9 was determined in-vitro using a mobility shift assay on a Caliper LC3000 reader (Caliper/PerkinElmer), which measures fluorescence of a phosphorylated and unphosphorylated fluorescent peptide substrate and calculates a ratiometric value to determine percent turnover. Phosphorylation of the peptide in the presence and absence of the compound of interest was determined. Enzyme/substrate/adenosine triphosphate (ATP) mix (3 nM CDK9/CycT1, 6 μM ATP, 1.5 μM CDK9 peptide substrate (FITC-X-GSRTPMY-NH2 (X: epsilon aminocaproic acid)), 50 mM HEPES (pH7.2), 1 mM dithiothreitol, 0.01% tween 20, 50 μg/mL bovine serum albumin, (final assay concentration)) (5 μl) was preincubated with 2 μl of compound for 15 minutes at 25° C. Reactions were initiated with 5 μl of 24 mM MgCl2 (10 mM final assay concentration) in buffer (50 mM HEPES (pH7.2), 1 mM dithiothreitol, 0.01% tween 20, 50 μg/mL bovine serum albumin, (final assay concentration) and incubated at 25° C. for 90 minutes and reactions were stopped by addition of 5 μl of Stop mix consisting of 65 mM HEPES (pH7.2), 35.5 mM EDTA, 0.227% Coatin Reagent 3 (Caliper/PerkinElmer), and 0.003% Tween. Phosphorylated and unphosphorylated substrate was detected by a Caliper LC3000 reader (Caliper/PerkinElmer) in the presence of separation buffer consisting of 100 mM HEPES (pH7.2), 15.8 mM EDTA, 0.1% Coatin Reagent 3 (Caliper/PerkinElmer), 0.015% Brij-35, 5% DMSO, and 5.6 mM MgCl2. CDK9 enzyme was acquired from Carna Biosciences (Catalogue number 04-110), the CDK9 peptide substrate was acquired from Intonation (Boston, Mass.; Custom-made).

[2] = test system: MV411 cells; assay: MV411 caspase activity assay (Caspase-Glo 3/7); type: cell-based; conditions: Homo sapiens, MV4-11, 6 h, 6-hr treatment, caspase 3/7 induction
Description: MV411 Caspase Activity Assay
This is a cell assay to measure the induction of caspase activity in the acute myeloid leukemia cell line, MV411 after 6-hr treatment with CDK9 inhibitors. On the first day, 3000 MV411 cells/well were seeded in 50 μl of growth media (IMDM+10% FBS+2% L-Glu+P/S) in 384-well white plates, incubate plates in 37° C. incubator overnight. […] After 6 hour incubation in 37° C. incubator, 25 μl of Caspase-Glo 3/7 reagent (Promega) per well was added into each well, and plates were incubated at room temperature for 30 min in dark. The plates were read on an Infinite M200 microplate reader (Tecan) with a 100 ms integration time.

[3] = test system: phosphorylation of RNA Polymerase II (RNAPII) at the Ser2 site in MCF7 cells; assay: MCF7 pSer2 RNAPII MOA assay (immunofluorescence); type: cell-based; conditions: Homo sapiens, MCF7, 6 h, 6-hr treatment, read-out: p-Ser 2 RNAPII (IC50)
Description: MCF7 pSer2 RNAPII MOA Assay
This is an immunofluorescence assay to determine the effect of CDK9 inhibitors on phosphorylation of RNA Polymerase II (RNAPII) at the Ser2 site in the breast cancer cell line, MCF7. On day one, 2500 MCF7 cells/well were seeded in 30 μl of growth media (RPMI+10% FBS+1% L-Glu+P/S) in 384-well black-wall clear-bottom plates, incubate plates overnight at 37° C. incubator. On the second day, the cells were treated with CDK9 inhibitors (7 point dose response ranging from 3 μM to 0.004 μM) using an ECHO liquid handler (Labcyte). After 6-hr treatment at 37° C. incubator, the cells were fixed with 30 µl/well 7.4% paraformaldehyde for 15 min at room temperature; the cells were washed twice with PBS, then permeabilized with 0.3% Triton X/PBS for 5 min at room temperature. After washing cells with PBS, the cells were incubated with 1:2000 diluted Anti-Ser2 Phospho-RNA pol II antibody (Covance MMS-129R) in 3% FBS/0.1% PBST overnight at 4° C. On the next day, the cells were washed twice with 0.1% PBST, then incubated with 1:1000 diluted Alexa Fluor 488 Goat-anti-mouse antibody (Life Technologies A-11001) and 1:4000 diluted DAPI at room temperature in dark. After one hour incubation, the cells were washed twice with 0.1% PBST, and once with PBS. The plates where sealed and read on an Acumen eX3 microplate cytometer (TTP Labtech) to assess phosphorylation level in each well.

[4] = biological target: T1, CDK9/CycT1; assay: CDK9 kinase assay, high ATP concentration (5 mM ATP); type: biochemical; conditions: 1.5 nM CDK9, read-out: CDK9 High ATP conc. (IC50)
Description: as §1
High ATP assays were run the same way with the following modifications: the final assay concentration of CDK9 was 1.5 nM and the final assay concentration of ATP was 5 mM.

T1 sequence (P50750 whole entry): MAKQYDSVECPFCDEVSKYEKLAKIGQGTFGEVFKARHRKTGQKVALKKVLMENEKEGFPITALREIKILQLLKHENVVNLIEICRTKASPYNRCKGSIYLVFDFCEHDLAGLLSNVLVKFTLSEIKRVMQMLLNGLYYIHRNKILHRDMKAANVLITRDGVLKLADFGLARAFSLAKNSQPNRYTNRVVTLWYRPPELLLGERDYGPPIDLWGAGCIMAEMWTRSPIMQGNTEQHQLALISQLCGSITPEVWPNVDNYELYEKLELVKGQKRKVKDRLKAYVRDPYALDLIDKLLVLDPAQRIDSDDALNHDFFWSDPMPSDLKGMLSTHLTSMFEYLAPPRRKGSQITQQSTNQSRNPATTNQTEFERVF
T1 sequence (O60563 whole entry partner): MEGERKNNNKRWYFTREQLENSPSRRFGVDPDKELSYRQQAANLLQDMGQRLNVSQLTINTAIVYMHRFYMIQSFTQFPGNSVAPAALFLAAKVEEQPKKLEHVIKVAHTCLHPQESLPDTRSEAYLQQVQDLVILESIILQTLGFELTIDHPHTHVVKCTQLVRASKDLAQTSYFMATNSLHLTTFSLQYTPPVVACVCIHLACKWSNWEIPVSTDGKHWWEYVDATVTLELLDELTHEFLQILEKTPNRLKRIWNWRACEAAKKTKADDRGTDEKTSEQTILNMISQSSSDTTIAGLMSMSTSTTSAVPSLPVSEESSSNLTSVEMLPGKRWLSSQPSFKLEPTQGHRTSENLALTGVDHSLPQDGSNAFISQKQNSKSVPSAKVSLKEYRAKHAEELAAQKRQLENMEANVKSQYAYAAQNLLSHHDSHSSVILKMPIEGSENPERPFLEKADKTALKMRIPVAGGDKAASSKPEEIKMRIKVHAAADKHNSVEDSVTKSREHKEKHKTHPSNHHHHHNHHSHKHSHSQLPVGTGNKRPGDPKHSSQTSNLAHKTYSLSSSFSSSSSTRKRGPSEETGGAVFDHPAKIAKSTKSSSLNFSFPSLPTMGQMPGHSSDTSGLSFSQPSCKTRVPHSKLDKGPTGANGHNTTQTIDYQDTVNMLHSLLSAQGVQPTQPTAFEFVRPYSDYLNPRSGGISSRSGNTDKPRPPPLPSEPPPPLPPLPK

Work on CC1(C(=O)N[C@@H]2CCC[C@H](C(=O)Nc3cc(-c4cnn5c4CCCC5)c(Cl)cn3)C2)COC1 [Example 34, N-((1R,3S)-3-((5-chloro-4-(4,5,6,7-tetrahydropyrazolo[1,5-a]pyridin-3-yl)pyridin-2-yl)carbamoyl)cyclohexyl)-3-methyloxetane-3-carboxamide] yielded an IC50 [1] of under 3 nM, an IC50 [2] of 188 nM and an IC50 [3] of 107 nM. For the same compound, the IC50 [4] was 29 nM.

Compound O=C(Nc1cc(-c2cnn3c2CCCC3)c(Cl)cn1)[C@H]1CCC[C@@H](NC(=O)[C@@H]2CCCO2)C1 [Example 35, (S)—N-((1R,3S)-3-((5-chloro-4-(4,5,6,7-tetrahydropyrazolo[1,5-a]pyridin-3-yl)pyridin-2-yl)carbamoyl)cyclohexyl)tetrahydrofuran-2-carboxamide] has an IC50 [1] of under 3 nM, an IC50 [2] of 125 nM and an IC50 [3] of 40 nM. The IC50 [4] was 23 nM.

In the case of CC(=O)N[C@H]1CCC[C@@H](C(=O)Nc2cc(-c3cnn4c3CC(C)(C)C4)c(F)cn2)C1 [Example 81, (1R,3S)-3-acetamido-N-(4-(5,5-dimethyl-5,6-dihydro-4H-pyrrolo[1,2-b]pyrazol-3-yl)-5-fluoropyridin-2-yl)cyclohexanecarboxamide], the IC50 [1] is reported as 8 nM, the IC50 [2] is reported as 896 nM and the IC50 [3] is reported as 665 nM. It also gave an IC50 [4] of 554 nM.

For CC(=O)N[C@@H]1CCC[C@H](C(=O)Nc2cc(-c3cnn4c3CCCCC4)c(F)cn2)C1 [Example 74, (1S,3R)-3-acetamido-N-(5-fluoro-4-(5,6,7,8-tetrahydro-4H-pyrazolo[1,5-a]azepin-3-yl)pyridin-2-yl)cyclohexanecarboxamide], the IC50 [1] was under 3 nM, the IC50 [2] was 281 nM and the IC50 [3] was 192 nM. It also gave an IC50 [4] of 39 nM.

For O=C(Nc1cc(-c2cnn3c2CCCC3)c(Cl)cn1)[C@H]1CCC[C@@H](NC(=O)[C@@H]2CCOC2)C1 [Example 33, (R)—N-((1R,3S)-3-((5-chloro-4-(4,5,6,7-tetrahydropyrazolo[1,5-a]pyridin-3-yl)pyridin-2-yl)carbamoyl)cyclohexyl)tetrahydrofuran-3-carboxamide], the IC50 [1] was under 3 nM, the IC50 [2] was 171 nM and the IC50 [3] was 57 nM. The IC50 [4] was 19 nM.

Work on CC1(C)Cc2c(-c3ccnc(NC(=O)[C@H]4C[C@@H](O)C4)c3)cnn2C1 [Example 26, cis-N-(4-(5,5-dimethyl-5,6-dihydro-4H-pyrrolo[1,2-b]pyrazol-3-yl)pyridin-2-yl)-3-hydroxycyclobutanecarboxamide] yielded an IC50 [1] of under 3 nM, an IC50 [2] of 152 nM and an IC50 [3] of 122 nM. For the same compound, the IC50 [4] was 93 nM.

With CC(=O)N[C@@H]1CCC[C@H](C(=O)Nc2cc(-c3cnn4c3CC(C)(C)C4)ncn2)C1 [Example 30, (1S,3R)-3-acetamido-N-(6-(5,5-dimethyl-5,6-dihydro-4H-pyrrolo[1,2-b]pyrazol-3-yl)pyrimidin-4-yl)cyclohexanecarboxamide] the IC50 [1] was 7 nM, the IC50 [2] was 1050 nM and the IC50 [3] was 1240 nM. It also gave an IC50 [4] of 606 nM.

In the case of CC(=O)N[C@@H]1CCC[C@H](C(=O)Nc2cc(-c3cnn4c3CCCCC4)c(Cl)cn2)C1 [Example 66, (1S,3R)-3-acetamido-N-(5-chloro-4-(5,6,7,8-tetrahydro-4H-pyrazolo[1,5-a]azepin-3-yl)pyridin-2-yl)cyclohexanecarboxamide], the IC50 [1] is reported as under 3 nM, the IC50 [2] is reported as 183 nM and the IC50 [3] is reported as 92 nM. For the same compound, the IC50 [4] was 23 nM.

For CC(=O)N[C@@H]1CCC[C@H](C(=O)Nc2cc(-c3cnn4c3CC(C)(C)CC4)c(F)cn2)C1 [Example 51, (1S,3R)-3-acetamido-N-(4-(5,5-dimethyl-4,5,6,7-tetrahydropyrazolo[1,5-a]pyridin-3-yl)-5-fluoropyridin-2-yl)cyclohexanecarboxamide], the IC50 [1] was under 3 nM, the IC50 [2] was 15 nM and the IC50 [3] was 10 nM. It also gave an IC50 [4] of under 3 nM.

CC(=O)N[C@@H]1CCC[C@H](C(=O)Nc2cc(-c3nnn4c3CCCC4)c(Cl)cn2)C1 [Example 49, (1S,3R)-3-acetamido-N-(5-chloro-4-(4,5,6,7-tetrahydro-[1,2,3]triazolo[1,5-a]pyridin-3-yl)pyridin-2-yl)cyclohexanecarboxamide] was tested, and the IC50 [1] was 39 nM, the IC50 [2] was 7980 nM and the IC50 [3] was over 2870 nM. For the same compound, the IC50 [4] was 4400 nM.
